Reference: patent US20090054403A1, “Treatment of Post-Traumatic Stress Disorder” (priority 2007, published 2009)

Assays:
[1] = test system: acoustic startle reactivity; experiment: Acoustic startle reactivity on day ten of chronic dosing; details: day ten of b.i.d. oral dosing
Method: The effects of chronic dosing of nepicastat were examined. Between three and thirteen days prior to the first dosing day the rats were placed inside the startle apparatus and after a five minute acclimation period they were presented with a 118 dB noise burst on average once a minute (a variable inter-trial interval ranging between 30 and 90 seconds will be used) for 20 minutes. The startle responses were measured and a mean for the last twenty startle response was calculated for each rat.
Acoustic startle reactivity (a series of muscle contractions elicited by an intense burst of noise with a rapid onset), and pre-pulse inhibition (sensorimotor gating measured by analyzing any decrease in startle reactivity which occurs when a startling stimulus is immediately preceded by a non startling stimulus) were both measured in eight SR-Lab (San Diego Instruments, San Diego, Calif.) test stations. The rats were placed individually in a Plexiglas cylinder (10 cm diameter) which was housed in a ventilated sound-attenuating enclosure. Acoustic noise bursts (a broad band noise with a rise time and fall time of 1 msec) were presented via a speaker mounted 30 cm above the animal. Also, these speakers produced a 68 dB level of background noise throughout all test sessions. […] A decibel meter was used to calibrate the speakers in each of the eight test station to ±1% of the mean. Additionally, a SR-Lab calibrating instrument was used to calibrate each of the eight startle detection apparatuses to ±2% of the mean. Startle reactivity and pre-pulse inhibition tests were run concurrently immediately alter the motor activity test (about 4 hours and 40 minutes after the morning daily injection of nepicastat, and SKF-102698, and 10 minutes after a supplemental administration of clonidine and d-amphetamine on dosing day ten).

[2] = molecular target: Ca2+/calmodulin protein kinase II; experiment: Selected enzyme assay; format: biochemical
Method: (§1) The activity of nepicastat at twelve selected enzymes and receptors was determined using established assays. Details of individual receptor radioligand binding assays can be found in Wong et al (1993). Binding data were analyzed by iterative curve-fitting to a four parameter logistic equation. Ki values were calculated from IC50 values using the Cheng-Prusoff equation. Enzyme inhibitory activity was expressed as IC50 (concentration required to produce 50% inhibition of enzyme activity). Male SHRs (15-16 weeks old, Charles River, Wilmington, Mass., USA) were used in the study. On the day of the study, animals were weighed and randomly assigned to be dosed with either vehicle (control) or the appropriate dose of nepicastat (3, 10, 30 or 100 mg.kg^−1, po) or (R)-5-Aminomethyl-1-(5,7-difluoro-1,2,3,4-tetrahydronaphth-2-yl)-2,3-dihydro-2-thioxo-1H-imidazole hydrochloride (30 mg.kg^−1, po) three consecutive times, twelve hours apart. At six hours after the third dose, the rats were anaesthetized with halothane, decapitated and tissues (cerebral cortex, mesenteric artery and left ventricle) were rapidly harvested, weighed, placed in iced perchloric acid (0.4 M), frozen in liquid nitrogen and stored at −70° C. until subsequent analysis. To quantify noradrenaline and dopamine concentrations, tissues were homogenized by brief sonication and centrifuged at 13,000 rpm for 30 minutes at 4° C. The supernatant, spiked with 3,4-dihydroxybenzylamine (internal standard), was assayed for noradrenaline and dopamine by HPLC using electrochemical detection.
(§2) In vitro assay of selected enzymes and neurotransmitter receptors. The activity of 2a at eleven different enzymes was determined using established assays (PanLabs Inc, Foster City, Calif.). The affinity of 2a for thirteen selected receptors was determined by radioligand binding assays using standard filtration techniques and membrane preparations. Binding data were analyzed by iterative curve fitting to a four parameter logistic equation. Ki values were calculated using the Cheng-Prusoff equation.

HMG-CoA reductase = molecular target: T1, HMG-CoA reductase (Homo sapiens, UniProt P04035); experiment: Selected enzyme assay; format: biochemical
T1 construct: PanLabs Inc (assay provider)
T1 sequence (P04035 whole entry, species assumed): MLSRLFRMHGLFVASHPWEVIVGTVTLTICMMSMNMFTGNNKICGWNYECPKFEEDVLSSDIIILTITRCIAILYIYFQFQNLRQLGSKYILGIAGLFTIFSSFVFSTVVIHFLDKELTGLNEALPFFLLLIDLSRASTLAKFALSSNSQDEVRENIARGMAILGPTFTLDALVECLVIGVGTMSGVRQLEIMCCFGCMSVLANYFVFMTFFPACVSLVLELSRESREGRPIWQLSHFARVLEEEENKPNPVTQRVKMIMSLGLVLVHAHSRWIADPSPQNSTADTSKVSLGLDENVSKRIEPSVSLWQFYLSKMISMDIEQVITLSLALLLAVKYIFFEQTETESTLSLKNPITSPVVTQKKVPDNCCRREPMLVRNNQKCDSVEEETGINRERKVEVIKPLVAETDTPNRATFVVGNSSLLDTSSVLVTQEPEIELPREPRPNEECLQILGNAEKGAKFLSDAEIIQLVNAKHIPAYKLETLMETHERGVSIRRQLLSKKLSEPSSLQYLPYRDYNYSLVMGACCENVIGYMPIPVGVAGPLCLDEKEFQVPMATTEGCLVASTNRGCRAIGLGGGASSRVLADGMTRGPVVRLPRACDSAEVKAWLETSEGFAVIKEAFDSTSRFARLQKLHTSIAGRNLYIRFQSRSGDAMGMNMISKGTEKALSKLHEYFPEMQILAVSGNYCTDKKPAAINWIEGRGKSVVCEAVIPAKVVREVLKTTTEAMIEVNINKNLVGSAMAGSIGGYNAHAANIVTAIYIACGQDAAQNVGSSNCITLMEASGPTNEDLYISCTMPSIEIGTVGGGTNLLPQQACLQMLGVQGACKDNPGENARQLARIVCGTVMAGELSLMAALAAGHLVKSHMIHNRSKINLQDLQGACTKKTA
Method: as §1, §2

acetyl CoA synthetase = experiment: Selected enzyme assay; format: biochemical
Method: as §1, §2

cyclooxygenase-I = molecular target: T2, cyclooxygenase-I (Homo sapiens, UniProt P23219); experiment: Selected enzyme assay; format: biochemical
T2 construct: PanLabs Inc (assay provider)
T2 sequence (P23219 24-599): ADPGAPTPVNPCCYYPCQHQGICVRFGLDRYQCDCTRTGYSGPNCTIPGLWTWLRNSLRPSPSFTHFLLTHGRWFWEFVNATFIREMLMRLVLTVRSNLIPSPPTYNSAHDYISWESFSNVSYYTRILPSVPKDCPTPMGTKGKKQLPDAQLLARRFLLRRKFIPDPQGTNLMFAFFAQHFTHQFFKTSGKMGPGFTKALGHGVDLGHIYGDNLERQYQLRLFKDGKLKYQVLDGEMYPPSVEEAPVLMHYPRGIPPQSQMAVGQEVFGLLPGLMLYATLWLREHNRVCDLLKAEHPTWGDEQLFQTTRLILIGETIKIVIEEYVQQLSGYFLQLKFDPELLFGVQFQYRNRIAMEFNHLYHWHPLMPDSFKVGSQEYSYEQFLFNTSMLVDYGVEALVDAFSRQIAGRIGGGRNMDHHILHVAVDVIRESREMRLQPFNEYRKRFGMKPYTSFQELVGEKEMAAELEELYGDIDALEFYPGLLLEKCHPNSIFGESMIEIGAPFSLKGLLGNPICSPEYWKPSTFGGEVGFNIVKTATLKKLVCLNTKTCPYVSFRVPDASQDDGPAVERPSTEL
Method: as §1, §2

nitric oxide synthase = experiment: Selected enzyme assay; format: biochemical
Method: as §1, §2

tyrosine hydroxylase = molecular target: T3, tyrosine hydroxylase (Homo sapiens, UniProt P07101); experiment: Selected enzyme assay; format: biochemical
T3 construct: PanLabs Inc (assay provider)
T3 sequence (P07101 whole entry): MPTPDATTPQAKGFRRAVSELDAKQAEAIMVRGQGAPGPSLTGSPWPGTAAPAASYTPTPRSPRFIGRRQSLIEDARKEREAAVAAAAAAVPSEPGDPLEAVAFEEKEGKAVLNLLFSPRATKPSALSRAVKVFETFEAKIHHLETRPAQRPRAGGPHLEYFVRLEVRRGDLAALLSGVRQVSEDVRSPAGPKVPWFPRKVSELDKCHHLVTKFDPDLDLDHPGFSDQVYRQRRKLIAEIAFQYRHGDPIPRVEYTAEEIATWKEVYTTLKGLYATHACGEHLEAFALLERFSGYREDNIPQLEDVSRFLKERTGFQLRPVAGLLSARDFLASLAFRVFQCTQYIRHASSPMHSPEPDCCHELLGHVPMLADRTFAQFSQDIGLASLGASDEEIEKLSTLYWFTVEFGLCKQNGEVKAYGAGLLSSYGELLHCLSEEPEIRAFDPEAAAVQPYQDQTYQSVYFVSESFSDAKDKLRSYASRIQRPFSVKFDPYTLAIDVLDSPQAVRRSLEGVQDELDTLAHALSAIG
Method: as §1, §2

[3] = test system: tissue noradrenaline and dopamine content; experiment: Tissue catecholamines in beagle dogs dosed b.i.d. for 4.5 days (0.05-5 mg/kg); format: in vivo
Method: Male beagle dogs (10-16 kg, Marshall Farms USA Inc, North Rose, N.Y., USA) were used in the study. On the day of the study, dogs were weighed and randomly assigned to be orally dosed with either empty capsules (control) or the appropriate dose of nepicastat (0.05, 0.5, 1.5 or 5 mg.kg^−1; po, b.i.d.) […]. At six hours following the first dose on day-5, the dogs were euthanized with pentobarbital and the tissues (cerebral cortex, renal artery, left ventricle) were rapidly harvested. The tissues were subsequently processed and analysed for noradrenaline and dopamine as described above.
Male beagle dogs (10-16 kg, Marshall Farms USA Inc, North Rose, N.Y.) were used in the study. On the day of the study, dogs were randomly assigned to receive either placebo (empty capsule) or the appropriate dose of 2a. Each dog was dosed twice a day for 4.5 days. 6 h after the first dose on day 5, the dogs were euthanized with pentobarbital and the tissues (cerebral cortex. renal artery, left ventricle) harvested, weighed, placed in iced 0.4 M perchloric acid, frozen in liquid nitrogen and stored at −70° C. until analysis. Tissue NE and DA concentrations were assayed by HPLC using electrochemical detection.

[4] = test system: dopamine and norepinephrine in the left ventricle; experiment: Left ventricle catecholamines after two iv doses; format: in vivo, Sprague-Dawley rats; details: 15 mg/kg iv x2, 12 h apart, 6 h after last
[5] = Plasma levels of nepicastat and N-acetyl metabolite in dogs, 2 mg/kg b.i.d.; format: in vivo, beagle dogs; details: 2 mg/kg bid, sampled 6 h after AM dose
Method: Male Beagle dogs (Marshall farms, North Rose, N.Y.) weighing between 9-16 kg were used in the study. The animals were allowed water ad libitum and given food once daily at ˜10.00 AM. Animals were randomly assigned to one of the following treatment groups (n=8/group): placebo (empty capsule), or nepicastat at 2 mg/kg b.i.d (4 mg/kg/day). Each animal received 2 doses daily, morning and afternoon (8-10 hours apart). Daily blood samples (10 ml) were drawn 6 h after the AM dose for measurement of plasma levels of nepicastat and catecholamines. The blood was collected in tubes containing heparin and glutathione and centrifuged at −4° C. within 1 h of collection. The plasma was separated and divided into two samples, one for the measurement of plasma catecholamines and the other for analysis of nepicastat.
Plasma NE, DA and EPI were anaylysed by HPLC using electrochemical detection. Plasma concentration of nepicastat was determined by HPLC using electrochemical detection.

For `Fc1cc(F)cc(Cn2cc[nH]c2=S)c1` [SKF 102698, reference compound], the “acoustic startle reactivity vs vehicle” value [1] was “significantly lower startle response compared to cyclodextrin” and the “acoustic startle reactivity vs vehicle” value ([1]; listed as SKF102698) was “significantly reduced”.

For `Cl.NCc1c[nH]c(=S)n1[C@H]1CCc2c(F)cc(F)cc2C1` [nepicastat, (S)-5-Aminomethyl-1-(5,7-difluoro-1,2,3,4-tetrahydronaphth-2-yl)-2,3-dihydro-2-thioxo-1H-imidazole hydrochloride], the IC50 [2] was over 10 µM, the IC50 (HMG-CoA reductase) was over 10 µM and the IC50 (acetyl CoA synthetase) was over 10 µM. For the same compound, the IC50 (cyclooxygenase-I) was over 10 µM, the IC50 (nitric oxide synthase) was over 10 µM and the IC50 (tyrosine hydroxylase) was over 10 µM. The “maximal increase in DA/NE ratio, artery (renal)” value ([3]; 5 mg/kg) was 95 fold, the “maximal increase in DA/NE ratio, cerebral cortex” value ([3]; 5 mg/kg) was 80 fold and the “maximal increase in DA/NE ratio, left ventricle” value ([3]; 5 mg/kg) was 151 fold. For the same compound, the “decrease in noradrenaline, cerebral cortex” value ([3]; 5 mg/kg b.i.d. po) was 96%, the “decrease in noradrenaline, left ventricle” value ([3]; 5 mg/kg b.i.d. po) was 91% and the “decrease in noradrenaline, renal artery” value ([3]; 5 mg/kg b.i.d. po) was 88%. For the same compound, the “increase in dopamine, cerebral cortex” value ([3]; 5 mg/kg b.i.d. po) was 166%, the “increase in dopamine, left ventricle” value ([3]; 5 mg/kg b.i.d. po) was 700% and the “increase in dopamine, renal artery” value ([3]; 5 mg/kg b.i.d. po) was 627%. For the same compound, the “doses at which catecholamine changes attained statistical significance (p<0.05)” value ([3]; renal artery, left ventricle, cerebral cortex) was over 0.1 mg/kg/day, the “decrease in norepinephrine levels, left ventricle” value [4] was 51% and the “increase in dopamine levels, left ventricle” value [4] was 472%. The “increase in dopamine/norepinephrine ratio, left ventricle” value [4] was 1117% and the “time of peak plasma levels of the drug” value [5] was 2 days post-dose.
